Data from US20150148311A1, “NON-SYSTEMIC TGR5 AGONISTS” (Ardelyx, Inc., priority 2011, published 2015).

Assays:
[1] = target: T1, human TGR5 (Homo sapiens, UniProt Q8TDU6); assay: Cell-based TGR5 assay, HEK293 cells stably expressing human TGR5, cAMP by HTRF; conditions: HEK293 cells stably expressing human TGR5, 30 min at 37 C, 0.05 nM to 10 μM, read-out: pEC50 Human TGR5 (converted)
T1 construct: expressed in transfected cells
T1 sequence (Q8TDU6 1-330): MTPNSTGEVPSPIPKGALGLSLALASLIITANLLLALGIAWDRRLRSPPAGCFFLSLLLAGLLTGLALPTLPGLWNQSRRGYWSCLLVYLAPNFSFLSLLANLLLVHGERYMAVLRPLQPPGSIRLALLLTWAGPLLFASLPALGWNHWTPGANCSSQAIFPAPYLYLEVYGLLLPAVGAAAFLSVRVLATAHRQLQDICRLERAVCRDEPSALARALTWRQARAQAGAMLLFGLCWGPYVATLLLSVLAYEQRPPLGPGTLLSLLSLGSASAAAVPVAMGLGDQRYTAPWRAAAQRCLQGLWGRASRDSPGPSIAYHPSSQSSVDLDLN
Method in brief: (§1)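 cAMP HTRF read-out, converted to concentration via standard curve, after a 30 min, 37 °C compound exposure in HBSS with 10 mM HEPES pH 7.4 and 0.5 mM IBMX, compounds serially diluted 3-fold from 10 mM DMSO stock then 100-fold. Cells: stable human TGR5 HEK293, or NCI-H716 expressing TGR5 endogenously.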

[2] = target: T2, endogenously expressed TGR5 in NCI H716 (Homo sapiens, UniProt Q8TDU6); assay: Cell-based TGR5 assay, NCI-H716 cells endogenously expressing human TGR5, cAMP by HTRF; conditions: 30 min at 37 C, 22 nM to 50 μM, read-out: pEC50 endogenously expressed TGR5 in NCI H716 (converted)
T2 construct: human caecum carcinoma cell line NCI-H716 which endogenously expresses human TGR5; endogenous in cells; host or cells: NCI-H716
T2 sequence (Q8TDU6 1-330): T1 sequence (Q8TDU6 1-330)
Method in brief: as §1

[3] = target: T3, human IBAT (Homo sapiens, UniProt Q12908); assay: IBAT counter screen, [3H]taurocholic acid uptake in IBAT-transfected HEK293 cells; assay type: cell-based; conditions: read-out: pEC50 human IBAT (converted)
T3 construct: expressed in transfected cells; host or cells: HEK293
T3 sequence (Q12908 1-348): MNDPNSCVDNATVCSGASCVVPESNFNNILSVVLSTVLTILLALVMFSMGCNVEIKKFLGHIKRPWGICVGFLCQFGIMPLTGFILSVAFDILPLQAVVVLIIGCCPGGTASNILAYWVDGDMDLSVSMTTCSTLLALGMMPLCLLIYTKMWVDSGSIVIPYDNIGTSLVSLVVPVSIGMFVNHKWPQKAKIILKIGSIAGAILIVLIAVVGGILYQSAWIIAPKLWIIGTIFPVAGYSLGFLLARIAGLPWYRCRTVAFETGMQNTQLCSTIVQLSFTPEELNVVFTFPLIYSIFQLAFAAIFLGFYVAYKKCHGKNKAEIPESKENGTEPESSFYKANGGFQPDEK
Experimental: Following a 40-min incubation, the solution was removed, and the cells were washed twice with uptake buffer. Cells were lysed by addition of 20 μL 0.1% Tween 80 followed by 100 μL scintillation fluid and counted using a TopCount (Perkin Elmer).

SMILES	EC50 [1] [nM]	EC50 [2] [nM]	EC50 [3] [µM]
O=C(N1CCN(C2CC2)c2ccccc21)C1(OCc2cc(Cl)ccc2Cl)CCCC1 [Example 8, (4-cyclopropyl-3,4-dihydroquinoxalin-1(2H)-yl)(1-(2,5 dichlorobenzyloxy)cyclopentyl)methanone]	< 100	126 to 1000	> 25.1
O=C([C@@H]1CCCCN1Cc1cc(Cl)ccc1Cl)N1CCCc2ccccc21 [Example 11, (S)-(1-(2,5-dichlorobenzyl)piperidin-2-yl)(3,4-dihydroquinolin-1(2H)-yl)methanone]	1260 to 50100	1260 to 50100	> 25.1
O=C([C@@H]1CCCCN1C(=O)c1cc(Cl)ccc1Cl)N1CCN(C2CC2)c2ccccc21 [Example 13, (S)-(2-(4-cyclopropyl-1,2,3,4-tetrahydroquinoxaline-1-carbonyl)piperidin-1-yl)(2,5-dichlorophenyl)methanone]	1260 to 50100	1260 to 50100	> 25.1
O=C([C@@H]1CCCN1S(=O)(=O)c1cc(Cl)ccc1Cl)N1CCN(C2CC2)c2ccccc21 [Example 18]	1260 to 50100	1260 to 50100	> 25.1
O=C([C@@H]1C2CC2CN1Cc1cc(Cl)ccc1Cl)N1CCN(C2CC2)c2ccccc21 (stereo partly drawn) [Example 24, (4-cyclopropyl-3,4-dihydroquinoxaline-1(2H)-yl)((2S)-3-(2,5-dichlorobenzyl)-3-azabicyclo[3.1.0]hexan-2-yl)methanone]	1260 to 50100	1260 to 50100	> 25.1
O=C(N1CCN(C2CC2)c2ccccc21)N1CCCC1Cc1ccccc1Cl (stereo not drawn) [Example 28]	1260 to 50100	1260 to 50100	> 25.1
COc1ccccc1N(C)C(=O)C1(OCc2cc(Cl)ccc2Cl)CC1 [Example 36, 1-(2,5-dichlorobenzyloxy)-N-(2-methoxyphenyl)-N-methylcyclopropanecarboxamide]	< 100	126 to 1000	> 25.1
COc1cccnc1N(C)C(=O)C1(OCc2cc(Cl)ccc2Cl)CC1 [Example 37, 1-(2,5-dichlorobenzyloxy)-N-(3-methoxypyridin-2-yl)-N-methylcyclopropanecarboxamide]	126 to 1000	1260 to 50100	> 25.1
CN(C(=O)C1(OCc2cc(Cl)ccc2Cl)CC1)c1ccccc1OCC1CC1 [Example 40, N-(2-(cyclopropylmethoxy)phenyl)-1-(2,5-dichlorobenzyloxy)-N-methylcyclopropanecarboxamide]	< 100	126 to 1000	> 25.1
O=C(c1cccc(OCc2cc(Cl)ccc2Cl)n1)N1CCN(C2CC2)c2ccccc21 [Example 63, 1-cyclopropyl-4-([6-[(2,5-dichlorophenyl)methoxy]pyridin-2-yl]carbonyl)-1,2,3,4-tetrahydroquinoxaline]	1260 to 50100	1260 to 50100	> 25.1
O=C(c1cccc(=O)n1Cc1cc(Cl)ccc1Cl)N1CCN(C2CC2)c2ccccc21 [Example 64, 6-[(4-cyclopropyl-1,2,3,4-tetrahydroquinoxalin-1-yl)carbonyl]-1-[(2,5-dichlorophenyl)methyl]-1,2-dihydropyridin-2-one]	1260 to 50100	1260 to 50100	> 25.1

Continued, values first:

EC50 [1] [nM]	EC50 [2] [nM]	EC50 [3] [µM]	SMILES
126 to 1000	126 to 1000	> 25.1	CC(C)(OCc1cc(Cl)ccc1Cl)C(=O)N1CCN(C2CC2)c2ccccc21 [Example 1, 1-(4-cyclopropyl-1,2,3,4-tetrahydroquinoxalin-1-yl)-2-[(2,5-dichlorophenyl)methoxy]-2-methylpropan-1-one]
1260 to 50100	> 50100	> 25.1	O=C(COc1cc(Cl)ccc1Cl)N1CCN(C2CC2)c2ccccc21 [Example 4, 1-(4-cyclopropyl-3,4-dihydroquinoxalin-1(2H)-yl)-2-(2,5-dichlorophenoxy)ethanone]
1260 to 50100	1260 to 50100	> 25.1	CC1(C)C[C@@H](C(=O)N2CCN(C3CC3)c3ccccc32)N(Cc2cc(Cl)ccc2Cl)C1 [Example 19, (S)-(4-cyclopropyl-3,4-dihydroquinoxaline-1 (2H)-yl)(1-(2,5-dichlorobenzyl)-4,4-dimethylpyrrolidin-2-yl)methanone]
1260 to 50100	1260 to 50100	> 25.1	O=C([C@@H]1CCC(=O)N1Cc1cc(Cl)ccc1Cl)N1CCN(C2CC2)c2ccccc21 [Example 25, (S)-5-(4-cyclopropyl-1,2,3,4-tetrahydroquinoxaline-1-carbonyl)-1-(2,5-dichlorobenzyl)pyrrolidin-2-one]
126 to 1000	1260 to 50100	> 25.1	CN(Cc1cc(Cl)ccc1Cl)C1(C(=O)N2CCN(C3CC3)c3ccccc32)CC1 [Example 27, (4-cyclopropyl-3,4-dihydroquinoxalin-1(2H)-yl)(1-((2,5-dichlorobenzyl)(methyl)amino)cyclopropyl)methanone]
< 100	126 to 1000	> 25.1	O=C(C1=C(Oc2cc(Cl)ccc2Cl)CCCC1)N1CCN(C2CC2)c2ccccc21 [Example 29, (4-cyclopropyl-3,4-dihydroquinoxalin-1(2H)-yl)(2-(2,5-dichlorophenoxy)cyclohex-1-enyl)methanone]
< 100	126 to 1000	> 25.1	CC(C)(COc1cc(Cl)ccc1Cl)C(=O)N1CCN(C2CC2)c2ccccc21 [Example 31, 1-(4-cyclopropyl-1,2,3,4-tetrahydroquinoxalin-1-yl)-3-(2,5-dichlorophenoxy)-2,2-dimethylpropan-1-one]
< 100	< 100	> 25.1	O=C(N1CCN(C2CC2)c2ccccc21)C1(NCc2cc(Cl)ccc2Cl)CCC1 [Example 56]
1260 to 50100	1260 to 50100	> 25.1	O=C(C1CCN(Cc2cc(Cl)ccc2Cl)C1)N1CCN(C2CC2)c2ccccc21 (stereo not drawn) [Example 57, (4-cyclopropyl-3,4-dihydroquinoxalin-1(2H)-yl)(1-(2,5-dichlorobenzyl)pyrrolidin-3-yl) methanone]
126 to 1000	126 to 1000	> 25.1	O=C(c1cccn1Cc1cc(Cl)ccc1Cl)N1CCN(C2CC2)c2ccccc21 [Example 61, (4-cyclopropyl-3,4-dihydroquinoxalin-1(2H)-yl)(1-(2,5-dichlorobenzyl)-1H-pyrrol-2-yl)methanone]
1260 to 50100	1260 to 50100	> 25.1	O=C(c1nccn1Cc1cc(Cl)ccc1Cl)N1CCN(C2CC2)c2ccccc21 [Example 62, (4-cyclopropyl-3,4-dihydroquinoxalin-1(2H)-yl)(1-(2,5-dichlorobenzyl)-1H-imidazol-2-yl)methanone]
1260 to 50100	1260 to 50100	> 25.1	Cc1nn(C)c(Oc2cc(Cl)ccc2Cl)c1C(=O)N1CCN(C2CC2)c2ccccc21 [Example 65, 1-cyclopropyl-4-[[5-(2,5-dichlorophenoxy)-1,3-dimethyl-1H-pyrazol-4-yl]carbonyl]-1,2,3,4-tetrahydroquinoxaline]
1260 to 50100	1260 to 50100	> 25.1	O=C(c1ncoc1Cc1cc(Cl)ccc1Cl)N1CCN(C2CC2)c2ccccc21 [Example 66, 1-cyclopropyl-4-([5-[(2,5-dichlorophenyl)methyl]-1,3-oxazol-4-yl]carbonyl)-1,2,3,4-tetrahydroquinoxaline]
